Activity calls are given as the source filed them. The rule behind the calls is not given here.
Assays:
[1] = target: T1, Protein deacetylase HDAC6 (Mus musculus) (UniProt Q9Z2V5); test: Inhibition of HDAC6 in INFgamma and LPS-induced mouse bone marrow derived macrophages assessed as decrease in IL10 gene expression at 5 uM by quantitative PCR analysis; format: tissue-based; conditions: Macrophage
T1 sequence (whole entry): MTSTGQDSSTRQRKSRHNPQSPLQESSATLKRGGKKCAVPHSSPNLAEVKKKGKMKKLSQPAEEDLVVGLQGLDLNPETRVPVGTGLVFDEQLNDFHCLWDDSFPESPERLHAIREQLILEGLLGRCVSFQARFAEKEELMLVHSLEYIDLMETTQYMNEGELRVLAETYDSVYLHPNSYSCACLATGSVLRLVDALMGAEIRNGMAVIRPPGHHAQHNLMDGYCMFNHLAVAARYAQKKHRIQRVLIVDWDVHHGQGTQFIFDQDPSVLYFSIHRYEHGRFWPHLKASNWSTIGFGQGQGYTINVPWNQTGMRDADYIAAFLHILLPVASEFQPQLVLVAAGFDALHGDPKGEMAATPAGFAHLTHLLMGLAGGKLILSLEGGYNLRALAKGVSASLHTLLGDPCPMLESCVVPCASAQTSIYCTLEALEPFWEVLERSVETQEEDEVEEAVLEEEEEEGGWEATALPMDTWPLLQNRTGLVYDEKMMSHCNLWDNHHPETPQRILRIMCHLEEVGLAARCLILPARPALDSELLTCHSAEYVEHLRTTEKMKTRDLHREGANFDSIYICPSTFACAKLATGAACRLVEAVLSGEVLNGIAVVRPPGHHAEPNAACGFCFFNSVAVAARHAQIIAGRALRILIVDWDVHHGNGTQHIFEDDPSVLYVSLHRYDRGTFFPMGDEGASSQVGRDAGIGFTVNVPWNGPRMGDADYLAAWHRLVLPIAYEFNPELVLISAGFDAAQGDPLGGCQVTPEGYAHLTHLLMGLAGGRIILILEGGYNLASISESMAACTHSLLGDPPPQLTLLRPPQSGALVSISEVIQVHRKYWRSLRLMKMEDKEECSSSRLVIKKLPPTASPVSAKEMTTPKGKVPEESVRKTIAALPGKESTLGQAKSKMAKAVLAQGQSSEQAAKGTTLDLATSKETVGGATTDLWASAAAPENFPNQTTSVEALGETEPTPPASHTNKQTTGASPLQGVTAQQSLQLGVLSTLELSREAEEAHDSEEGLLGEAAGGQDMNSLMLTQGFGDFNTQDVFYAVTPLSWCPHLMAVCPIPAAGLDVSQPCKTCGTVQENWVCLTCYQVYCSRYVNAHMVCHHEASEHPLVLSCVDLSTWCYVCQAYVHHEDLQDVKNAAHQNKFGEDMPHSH

Mus musculus [2] = test: Immunomodulatory activity in C57BL/6 mouse harboring mouse SM1 cells assessed as reduction in natural killer T cells at 25 mg/kg, ip dosed 5 days per week before by flow cytometry; format: functional, organism-based; conditions: time 5.0 day/week
HEK293 = test: Selectivity index, ratio of IC50 for human HDAC2 expressed in HEK293/T17 cells (unknown origin) to human HDAC6 expressed in HEK293/T17 cells; format: cell-based
[3] = target: Histone deacetylase (Homo sapiens) (UniProt Q13547+O15379+Q9UBN7+Q92769+Q9UQL6+Q8WUI4+Q9BY41+Q96DB2+P56524+Q9UKV0+Q969S8); test: Inhibition of human HDAC in human WM164 cells increase in acetylated histone H3 levels at 0.1 to 10 uM by immunoblot analysis; format: cell-based; conditions: dose microM 0.1-10
Mus musculus [4] = test: Immunomodulatory activity in C57BL/6 mouse harboring mouse SM1 cells assessed as increase in CD8+ central memory cells at 25 mg/kg, ip dosed 5 days per week by flow cytometry; format: functional, organism-based; conditions: time 5.0 day/week
[5] = Half life in PBS by LC-MS/MS analysis; format: physicochemical
Mus musculus [6] = test: Immunomodulatory activity in C57BL/6 mouse harboring mouse SM1 cells assessed as effect on CD4+ T cells at 25 mg/kg, ip dosed 5 days per week before starting 15 mg/kg, ip anti-PD1 immune checkpoint blockade therapy by flow cytometry; format: functional, organism-based; conditions: time 5.0 day/week
[7] = Protein binding in human plasma at 10 uM incubated for 1 hr by LC-MS/MS analysis; format: ADME, cell-free; conditions: read-out: PPB (converted)
[8] = target: T2, Protein deacetylase HDAC6 (Homo sapiens) (UniProt Q9UBN7); test: Inhibition of human HDAC6 in human WM164 cells assessed as decrease in STAT3 Y705 phosphorylation at 5 uM pre-incubated before IL6 stimulation for 20 mins by immunoblot analysis; format: cell-based
T2 sequence (whole entry): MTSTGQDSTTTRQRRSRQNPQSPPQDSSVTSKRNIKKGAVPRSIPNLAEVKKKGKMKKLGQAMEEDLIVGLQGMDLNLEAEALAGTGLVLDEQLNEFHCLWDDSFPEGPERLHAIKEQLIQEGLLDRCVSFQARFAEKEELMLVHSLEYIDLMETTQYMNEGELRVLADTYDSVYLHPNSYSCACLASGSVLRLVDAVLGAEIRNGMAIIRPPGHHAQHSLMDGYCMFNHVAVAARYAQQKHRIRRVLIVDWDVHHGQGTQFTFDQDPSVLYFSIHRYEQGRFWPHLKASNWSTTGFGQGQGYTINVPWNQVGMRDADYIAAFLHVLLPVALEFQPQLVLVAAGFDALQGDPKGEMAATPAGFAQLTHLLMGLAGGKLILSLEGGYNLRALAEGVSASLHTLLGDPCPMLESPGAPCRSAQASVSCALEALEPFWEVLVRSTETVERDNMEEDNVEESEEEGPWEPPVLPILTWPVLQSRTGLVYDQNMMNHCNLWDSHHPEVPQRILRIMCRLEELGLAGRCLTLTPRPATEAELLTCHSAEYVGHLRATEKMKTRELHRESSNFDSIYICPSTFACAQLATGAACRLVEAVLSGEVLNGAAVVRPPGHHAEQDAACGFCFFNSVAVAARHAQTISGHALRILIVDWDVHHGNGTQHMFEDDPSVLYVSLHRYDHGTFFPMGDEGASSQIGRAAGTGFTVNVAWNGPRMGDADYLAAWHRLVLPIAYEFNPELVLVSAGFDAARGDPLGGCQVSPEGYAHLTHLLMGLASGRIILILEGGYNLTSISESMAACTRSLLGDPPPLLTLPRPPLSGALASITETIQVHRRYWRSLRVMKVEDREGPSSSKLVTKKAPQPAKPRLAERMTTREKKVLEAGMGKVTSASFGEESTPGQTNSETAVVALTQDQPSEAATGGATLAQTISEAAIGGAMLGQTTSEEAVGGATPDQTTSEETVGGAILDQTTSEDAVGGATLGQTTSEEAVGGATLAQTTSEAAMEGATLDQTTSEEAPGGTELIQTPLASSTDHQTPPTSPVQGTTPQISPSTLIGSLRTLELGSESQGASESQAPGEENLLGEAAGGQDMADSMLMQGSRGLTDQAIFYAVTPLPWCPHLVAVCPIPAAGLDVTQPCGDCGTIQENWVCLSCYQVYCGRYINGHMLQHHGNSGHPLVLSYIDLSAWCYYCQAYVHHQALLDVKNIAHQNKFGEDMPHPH

In the case of `NCc1ccc(NC(=O)N(CCCCO)Cc2ccc(C(=O)NO)cc2)cc1`, the inhibition [1] was “Active”, the Activity (Mus musculus [2]) was “Active” and the Ratio IC50 (HEK293) was 440. The inhibition [3] was “Active”, the Activity (Mus musculus [4]) was “Active” and the half-life [5] was > 24 h. The Activity (Mus musculus [6]) was “inactive”, the fraction unbound at 1 h, 10 µM [7] was 0.981 and the inhibition [8] was “Active”.
